Laboratory results as given in PMC12676205, “New Se‐Compounds With Antileishmanial, Antitumor, and Carbonic Anhydrase Inhibitory Properties” (Archiv Der Pharmazie, 2025).
Read-outs that look alike come from different tables or passages of the source.

Assays:
L. major promastigotes [1] = tested on: L. major promastigotes; set-up: method as in PMID 37570815, PMID 36364304; conditions: reference drugs; cited from earlier work
[2] = tested on: L. infantum promastigotes; set-up: method as in PMID 37570815, PMID 36364304; conditions: reference drugs; cited from earlier work
THP‐1 cells = tested on: THP‐1 cells; set-up: method as in PMID 37570815, PMID 36364304; conditions: reference drugs; cited from earlier work
[3] = tested on: NCI‐60 human cancer cell lines; set-up: method as in PMID 20442306; conditions: NCI-60 panel; read-out: mean GI50 in the same panel of cell lines; cited from earlier work
hCA I = target: T1, hCA I (Homo sapiens, UniProt P00915); test: hCA I inhibition, stopped-flow CO2 hydration assay; type: biochemical; conditions: stopped flow technique, mean from three assays
T1 construct: made in house
Description: (§7) An Applied Photophysics stopped‐flow instrument was used to assay the CA‐catalyzed CO2 hydration activity [52]. […] The uncatalyzed rates were determined in the same manner and subtracted from the total observed rates. Stock solutions of the inhibitor (0.1 mM) were prepared in distilled–deionized water, and dilutions up to 0.01 nM were done thereafter with the assay buffer. Inhibitor and enzyme solutions were preincubated together for 15 min at room temperature before the assay, to allow for the formation of the E–I complex. The inhibition constants were obtained by Nonlinear least‐squares methods using PRISM 3 and the Cheng‐Prusoff equation as reported earlier and represent the mean from at least three different determinations. All CA isoforms were recombinant proteins obtained in‐house, as reported earlier [54, 55, 56].

hCA II = target: T2, hCA II (Homo sapiens, UniProt P00918); test: hCA II inhibition, stopped-flow CO2 hydration assay; type: biochemical; conditions: stopped flow technique, mean from three assays
T2 construct: made in house
Description: as §7

hCA IX = target: T3, hCA IX (Homo sapiens, UniProt Q16790); test: biochemical; conditions: stopped flow technique, mean from three assays
T3 construct: made in house
Description: as §7

hCA XII = target: T4, hCA XII (Homo sapiens, UniProt O43570); test: hCA XII inhibition, stopped-flow CO2 hydration assay; type: biochemical; conditions: stopped flow technique, mean from three assays
T4 construct: made in house
Description: as §7

Leukemia subpanel [4] = test: NCI-60 one-dose screen, leukemia subpanel; type: cell-based, human; conditions: 10 µM, 48 h
Description: (§1) To explore the potential antiproliferative properties of the newly synthesized derivatives, they were submitted to the National Cancer Institute's (NCI) Developmental Therapeutics Program (DTP) for screening at 10 μM in a panel of approximately 60 human cancer cell lines from different cancer types. The results are reported as the growth percentage (GP), which is the growth of the treated cells with each compound for 48 h compared to the untreated controls (Figure 2). […] The initial screening results are summarized in Figure 2, and the mean GP values of each subpanel are depicted in Figure 3. The full reports are compiled in the Supplementary Section.
(§2) All the reported selenoesters (1–6) were submitted to the DTP of NCI. First, they were screened at a single dose (10^−5 M) against a panel of 60 cancer cell lines derived from different tumor types following the methodology available (https://dtp.cancer.gov/discovery_development/nci-60/methodology.htm). As all the compounds satisfied the threshold inhibition criteria established, they were further assessed at five concentrations (0.01, 0.1, 1, 10, and 100 µM) against the same cell panel to obtain their corresponding dose–response curves and three antitumor parameters (GI50, TGI, and LC50) by regression. GraphPad Prism 7.0 Software was used to represent the corresponding graphs.

[5] = tested on: NSCL (non‐small‐cell lung cancer) subpanel; test: NCI-60 one-dose screen, NSCL subpanel; type: cell-based, human; conditions: 10 µM, 48 h
Description: as §1, §2

Colon subpanel [6] = test: NCI-60 one-dose screen, colon subpanel; type: cell-based, human; conditions: 10 µM, 48 h
Description: as §1, §2

CNS subpanel [7] = test: NCI-60 one-dose screen, CNS subpanel; type: cell-based, human; conditions: 10 µM, 48 h
Description: as §1, §2

Melanoma subpanel [8] = test: NCI-60 one-dose screen, melanoma subpanel; type: cell-based, human; conditions: 10 µM, 48 h
Description: as §1, §2

Ovarian subpanel [9] = test: NCI-60 one-dose screen, ovarian subpanel; type: cell-based, human; conditions: 10 µM, 48 h
Description: as §1, §2

Renal subpanel [10] = test: NCI-60 one-dose screen, renal subpanel; type: cell-based, human; conditions: 10 µM, 48 h
Description: as §1, §2

Prostate subpanel [11] = test: NCI-60 one-dose screen, prostate subpanel; type: cell-based, human; conditions: 10 µM, 48 h
Description: as §1, §2

Breast subpanel [12] = test: NCI-60 one-dose screen, breast subpanel; type: cell-based, human; conditions: 10 µM, 48 h
Description: as §1, §2

OVCAR‐5 = test: NCI-60 one-dose screen, OVCAR-5; type: cell-based, human; conditions: 10 µM, 48 h
Description: as §1, §2

Leukemia subpanel [13] = test: NCI-60 five-dose assay, leukemia subpanel; type: cell-based; conditions: Homo sapiens, 48 h
Description: (§3) All the compounds were selected for further testing since they fulfilled the set NCI one‐dose screening parameters for threshold inhibition. They were tested at five different concentrations (0.01, 0.1, 1, 10, and 100 μM) for 48 h against the same cell line panel and the dose–response curves along with three response parameters (50% growth inhibitory concentration [GI50], the 50% lethal concentration [LC50], and the total growth inhibition [TGI]) were calculated for every cancer cell line. The full reported data and corresponding graphs are compiled in Supporting Information S1. Average values of GI50, TGI, and LC50 values of all the reported selenoesters in all the subpanels are represented in Figure 4.
as §2

[14] = tested on: NSCL (non‐small‐cell lung cancer) subpanel; test: NCI-60 five-dose assay, NSCL subpanel; type: cell-based; conditions: Homo sapiens, 48 h, read-out: Mean GI50 NSCL
Description: as §3, §2

Colon subpanel [15] = test: NCI-60 five-dose assay, colon subpanel; type: cell-based; conditions: Homo sapiens, 48 h
Description: as §3, §2

CNS subpanel [16] = test: NCI-60 five-dose assay, CNS subpanel; type: cell-based; conditions: Homo sapiens, 48 h, read-out: Mean GI50 CNS
Description: as §3, §2

Melanoma subpanel [17] = test: NCI-60 five-dose assay, melanoma subpanel; type: cell-based; conditions: Homo sapiens, 48 h, read-out: Mean GI50 Melanoma
Description: as §3, §2

Ovarian subpanel [18] = test: NCI-60 five-dose assay, ovarian subpanel; type: cell-based; conditions: Homo sapiens, 48 h, read-out: Mean GI50 Ovarian
Description: as §3, §2

Renal subpanel [19] = test: NCI-60 five-dose assay, renal subpanel; type: cell-based; conditions: Homo sapiens, 48 h, read-out: Mean GI50 Renal
Description: as §3, §2

Prostate subpanel [20] = test: NCI-60 five-dose assay, prostate subpanel; type: cell-based, human; conditions: Homo sapiens, 48 h
Description: as §3, §2

Breast subpanel [21] = test: NCI-60 five-dose assay, breast subpanel; type: cell-based; conditions: Homo sapiens, 48 h, read-out: Mean GI50 Breast
Description: as §3, §2

[22] = tested on: OVCAR‐5 ovarian cancer cells; test: NCI-60 five-dose assay, OVCAR-5; type: cell-based, human; conditions: 48 h
Description: as §3, §2

L. major promastigotes [23] = test: Leishmanicidal activity against promastigotes (MTT), L. major; type: cell-based, Leishmania major; conditions: Leishmania major, 48 h, mean ± SD, read-out: L. major IC50
Description: (§4) The synthesized compounds were tested for their antileishmanial activity against promastigotes of L. major and L. infantum at four concentrations (1, 10, 50, and 100 µM) for 48 h using the 3‐(4,5‐dimethylthiazol‐2‐yl)‐2,5‐diphenyltetrazolium bromide (MTT) assay. In this evaluation, the activity was expressed in IC50 (concentration inhibiting the parasite growth by 50%). […] The CC50 was defined as the concentration of selenoesters that led to a reduction in the viability of the macrophages, such that only 50% of the cells survived when compared to the control group. This cell line, derived from the blood of a human with acute monocytic leukemia, was chosen as it has been widely reported that it resembles tissue macrophages to various extents as well as supports the infection by numerous Leishmania promastigotes. The selectivity indexes (SIs) were calculated as the ratio between toxicity on macrophages (THP‐1 cells)/antileishmanial activity. The data for standard control drugs (miltefosine and paromomycin) are included for comparison purposes.
(§5) The promastigotes of L. major (clone VI, MHOM/IL/80/Friendlin) and L. infantum (BCN‐150) were grown at 26°C under continuous shaking in M199 1× medium (Sigma, USA). This media was supplemented with 10% of heat‐inactivated fetal bovine serum (FBS) (Gibco, USA), 0.0005% (w/v) hemin, 0.1 mM adenine, 25 mM HEPES (pH 7.2), 0.0001% (w/v) biotin, and 100 UI/mL penicillin and […] streptomycin (Gibco, USA).
(§6) The antileishmanial activity of the reported selenoesters was determined using the MTT assay as previously described during the logarithmic growth phase of the tested promastigotes of L. major and L. infantum. Briefly, the Leishmania parasites were seeded into 96‐well flat‐bottom plates (3 × 10^5 parasites/100 µL) and treated with four different concentrations ranging between 1 and 100 µM of each selenoester at 26°C for 48 h. Afterwards, 20 µL of MTT (5 mg/mL in PBS) was added to each well and incubated for 4 h under the same conditions. Then, 80 µL/well of DMSO was added to dissolve the resultant formazan crystals. The absorbances were determined on a Multiskan EX photometric plate reader for microplates at 540 nm. Three independent experiments performed in triplicate were carried out for each compound, and OriginPro 8.5.1 Software was used to calculate the IC50 values by fitting the data to a dose–inhibition sigmoid curve.

[24] = tested on: L. infantum promastigotes; test: Leishmanicidal activity against promastigotes (MTT), L. infantum; type: cell-based, Leishmania infantum; conditions: Leishmania infantum, 48 h, mean ± SD, read-out: L. infantum IC50
Description: as §4, §5, §6

T1 sequence (P00915 whole entry): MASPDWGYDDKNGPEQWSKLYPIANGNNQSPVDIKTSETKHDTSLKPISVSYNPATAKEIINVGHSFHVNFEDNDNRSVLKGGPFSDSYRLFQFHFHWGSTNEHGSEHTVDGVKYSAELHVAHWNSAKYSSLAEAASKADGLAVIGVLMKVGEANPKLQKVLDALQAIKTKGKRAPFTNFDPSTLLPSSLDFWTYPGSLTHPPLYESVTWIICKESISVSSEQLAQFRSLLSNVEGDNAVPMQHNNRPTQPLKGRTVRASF
T4 sequence (O43570 25-354): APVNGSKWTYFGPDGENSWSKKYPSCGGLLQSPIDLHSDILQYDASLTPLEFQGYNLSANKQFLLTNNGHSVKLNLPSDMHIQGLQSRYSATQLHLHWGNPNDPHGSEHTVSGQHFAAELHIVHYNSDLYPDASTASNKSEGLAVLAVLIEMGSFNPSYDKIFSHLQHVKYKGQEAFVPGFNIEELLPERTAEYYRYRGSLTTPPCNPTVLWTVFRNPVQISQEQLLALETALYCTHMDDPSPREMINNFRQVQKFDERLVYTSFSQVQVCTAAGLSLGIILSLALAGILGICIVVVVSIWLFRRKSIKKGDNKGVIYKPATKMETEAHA

For `CCCCCCCCCCCCCCCCOP(=O)([O-])OCC[N+](C)(C)C` [Miltefosine, miltefosine], the IC50 (L. major promastigotes [1]) is listed as 66.6 ± 11.6 µM, the IC50 [2] is listed as 31.9 ± 2.3 µM and the CC50 (THP‐1 cells) is listed as 13.3 ± 2.8 µM.

For `O=c1[nH]cc(F)c(=O)[nH]1` [5‐fluorouracil], the GI50 [3] is given as 18 µM.

For `COc1cc2ncnc(Nc3ccc(F)c(Cl)c3)c2cc1OCCCN1CCOCC1` [gefitinib], the GI50 [3] is listed as 3.2 µM.

With `N#Cc1ccc(NC(=O)C[Se]C(=O)c2ccco2)cc1C(F)(F)F` [Compound 4, Se‐(2‐((4‐cyano‐3‐(trifluoromethyl)phenyl)amino)‐2‐oxoethyl)furan‐2‐carboselenoate] the Ki (hCA I) was > 100 µM, the Ki (hCA II) was 93.8 µM and the Ki (hCA IX) was 19 µM. For the same compound, the Ki (hCA XII) was 77.1 µM, the “average growth cell value, Leukemia” value (Leukemia subpanel [4]) was 5.71% and the “average growth cell value, NSCL” value [5] was -37.92%. For the same compound, the “average growth cell value, Colon” value (Colon subpanel [6]) was -19.82%, the “average growth cell value, CNS” value (CNS subpanel [7]) was -60.59% and the “average growth cell value, Melanoma” value (Melanoma subpanel [8]) was -56.62%. The “average growth cell value, Ovarian” value (Ovarian subpanel [9]) was -28.29%, the “average growth cell value, Renal” value (Renal subpanel [10]) was -40.11% and the “average growth cell value, Prostate” value (Prostate subpanel [11]) was -28.10%. The “average growth cell value, Breast” value (Breast subpanel [12]) was -25.05%, the “behaviour in OVCAR‐5” value (OVCAR‐5) was “cytotoxic activity” and the GI50 (Leukemia subpanel [13]; read-out: Mean GI50 Leukemia) was 1.87 µM. For the same compound, the CC50 (Leukemia subpanel [13]; read-out: Mean LC50 Leukemia) was > 100 µM, the GI50 [14] was 1.56 µM and the GI50 (Colon subpanel [15]; read-out: Mean GI50 Colon) was 1.91 µM. For the same compound, the CC50 (Colon subpanel [15]; read-out: Mean LC50 Colon) was 27.6 µM, the GI50 (CNS subpanel [16]) was 1.8 µM and the GI50 (Melanoma subpanel [17]) was 1.44 µM. It also gave a GI50 (Ovarian subpanel [18]) of 1.94 µM, a GI50 (Renal subpanel [19]) of 1.92 µM and a GI50 (Prostate subpanel [20]; read-out: Mean GI50 Prostate) of 1.65 µM. For the same compound, the CC50 (Prostate subpanel [20]; read-out: Mean LC50 Prostate) was 53.2 µM, the GI50 (Breast subpanel [21]) was 1.72 µM and the “cytotoxicity against OVCAR‐5” value [22] was “remarkable cytotoxicity”. For the same compound, the IC50 (L. major promastigotes [23]) was 26.5 ± 3.69 µM and the IC50 [24] was 28.6 ± 2.4 µM.

For `NC[C@@H]1O[C@H](O[C@H]2[C@@H](O)[C@H](O[C@@H]3[C@@H](O)[C@H](N)C[C@H](N)[C@H]3O[C@H]3O[C@H](CO)[C@@H](O)[C@H](O)[C@H]3N)O[C@@H]2CO)[C@H](N)[C@@H](O)[C@@H]1O` [Paromomycin, paromomycin], the IC50 (L. major promastigotes [1]) is given as 71 ± 3.3 µM, the IC50 [2] is given as 18 ± 1 µM and the CC50 (THP‐1 cells) is given as 39 ± 13.7 µM.

For `O=C1[O][Pt]2([NH][C@@H]3CCCC[C@H]3[NH]2)[O]C1=O` [oxaliplatin], the GI50 [3] is listed as 2.8 µM.
